Measurements reported in ChEMBL document CHEMBL4028888, “Design of MC1R Selective γ-MSH Analogues with Canonical Amino Acids Leads to Potency and Pigmentation” (J Med Chem, 2017).
Calls of active or inactive are those of the source. The calls are words filed in the database; no cut-off is given here. Where a SMILES comes first, the peptide text is derived from it.

Columns and labels:
Melanocortin receptor 5 [1] = target: T1, Melanocortin receptor 5 (Homo sapiens, UniProt P33032); assay: Agonist activity at human MC5R expressed in HEK293 cells assessed as induction of intracellular cAMP accumulation at 10 uM after 3 mins relative to MT-2; assay type: cell-based; settings: 0.05 h, read-out: %max
Melanocortin receptor 4 [2] = target: T2, Melanocortin receptor 4 (Homo sapiens, UniProt P32245); assay: Displacement of [125I]-NDP-alpha-MSH from human MC4R expressed in HEK293 cells at 10 uM after 40 mins by gamma counting method; assay type: cell-based
Melanocortin receptor 4 [3] = target: T2, Melanocortin receptor 4; assay: Agonist activity at human MC4R expressed in HEK293 cells assessed as induction of intracellular cAMP accumulation at 10 uM after 3 mins relative to MT-2; assay type: cell-based; settings: 0.05 h, read-out: %max
[4] = target: Melanocyte-stimulating hormone receptor (Homo sapiens) (UniProt Q01726); assay: Agonist activity at human MC1R expressed in HEK293 cells assessed as induction of intracellular cAMP accumulation at 10 uM measured after 3 mins relative to MT-2; assay type: functional, cell-based
[5] = target: Melanocyte-stimulating hormone receptor (Homo sapiens) (UniProt Q01726); assay: Displacement of [125I]-NDP-alpha-MSH from human MC1R expressed in HEK293 cells at 10 uM after 40 mins by gamma counting method; assay type: cell-based
Anolis carolinensis [6] = assay: Induction of pigmentation effect in lizard at 2 ug/g, ip at 1 min post dose; assay type: functional, organism-based
Melanocortin receptor 5 [7] = target: T1, Melanocortin receptor 5; assay: Displacement of [125I]-NDP-alpha-MSH from human MC5R expressed in HEK293 cells at 10 uM after 40 mins by gamma counting method; assay type: cell-based
Anolis carolinensis [8] = assay: Induction of pigmentation effect in lizard at 2 ug/g, ip at 24 hrs post dose; assay type: functional, organism-based
Melanocortin receptor 3 [9] = target: T3, Melanocortin receptor 3 (Homo sapiens, UniProt P41968); assay: Agonist activity at human MC3R expressed in HEK293 cells assessed as induction of intracellular cAMP accumulation at 10 uM after 3 mins relative to MT-2; assay type: cell-based; settings: 0.05 h, read-out: %max
[10] = target: Melanocyte-stimulating hormone receptor (Homo sapiens) (UniProt Q01726); assay: Displacement of [125I]-NDP-alpha-MSH from human MC1R expressed in HEK293 cells after 40 mins by gamma counting method; assay type: cell-based
Melanocortin receptor 3 [11] = target: T3, Melanocortin receptor 3; assay: Displacement of [125I]-NDP-alpha-MSH from human MC3R expressed in HEK293 cells at 10 uM after 40 mins by gamma counting method; assay type: cell-based
Melanocortin receptor 5 [12] = target: T1, Melanocortin receptor 5; assay: Agonist activity at human MC5R expressed in HEK293 cells assessed as induction of intracellular cAMP accumulation after 3 mins; assay type: cell-based; settings: hek293, 0.05 h

T2 sequence (P32245 whole entry): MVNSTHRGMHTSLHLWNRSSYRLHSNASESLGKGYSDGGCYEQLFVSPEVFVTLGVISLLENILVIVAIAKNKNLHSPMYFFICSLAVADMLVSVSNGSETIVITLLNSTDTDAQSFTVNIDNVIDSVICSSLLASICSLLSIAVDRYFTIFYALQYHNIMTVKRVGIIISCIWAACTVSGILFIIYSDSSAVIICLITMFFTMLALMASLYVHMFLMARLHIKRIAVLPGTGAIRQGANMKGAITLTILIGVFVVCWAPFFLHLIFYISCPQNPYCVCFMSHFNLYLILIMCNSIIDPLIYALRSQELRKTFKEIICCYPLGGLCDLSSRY
T3 sequence (P41968 whole entry): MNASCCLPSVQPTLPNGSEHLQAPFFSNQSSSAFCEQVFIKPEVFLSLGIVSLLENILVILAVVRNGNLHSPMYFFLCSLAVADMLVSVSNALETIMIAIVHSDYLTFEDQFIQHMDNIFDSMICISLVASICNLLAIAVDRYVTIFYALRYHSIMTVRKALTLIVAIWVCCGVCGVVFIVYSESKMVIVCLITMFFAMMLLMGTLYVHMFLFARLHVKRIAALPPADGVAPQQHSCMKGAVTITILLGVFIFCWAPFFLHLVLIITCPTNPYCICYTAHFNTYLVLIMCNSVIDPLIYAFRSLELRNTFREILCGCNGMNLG
T1 sequence (P33032 whole entry): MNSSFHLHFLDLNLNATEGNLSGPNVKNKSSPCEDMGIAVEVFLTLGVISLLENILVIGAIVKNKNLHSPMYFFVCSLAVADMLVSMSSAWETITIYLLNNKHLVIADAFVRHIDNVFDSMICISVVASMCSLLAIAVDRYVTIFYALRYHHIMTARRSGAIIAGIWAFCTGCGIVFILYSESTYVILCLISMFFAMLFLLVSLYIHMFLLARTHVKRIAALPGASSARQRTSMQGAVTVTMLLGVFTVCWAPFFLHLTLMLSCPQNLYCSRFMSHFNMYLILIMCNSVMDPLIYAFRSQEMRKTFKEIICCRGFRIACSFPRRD
Sequence of Melanocyte-stimulating hormone receptor (Homo sapiens) (Q01726 whole entry, looked up): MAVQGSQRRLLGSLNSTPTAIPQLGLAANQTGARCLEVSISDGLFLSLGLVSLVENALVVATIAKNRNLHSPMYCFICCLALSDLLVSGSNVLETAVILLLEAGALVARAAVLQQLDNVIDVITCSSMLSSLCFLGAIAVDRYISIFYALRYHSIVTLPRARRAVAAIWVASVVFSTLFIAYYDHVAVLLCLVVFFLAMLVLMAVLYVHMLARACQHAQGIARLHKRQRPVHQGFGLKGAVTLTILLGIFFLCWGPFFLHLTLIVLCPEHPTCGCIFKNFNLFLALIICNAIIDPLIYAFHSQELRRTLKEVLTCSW

SMILES	Emax at 10 µM (Melanocortin receptor 5 [1])	inhibition at 10 µM (Melanocortin receptor 4 [2])	inhibition [5]	inhibition at 10 µM (Melanocortin receptor 5 [7])	other results
CCCC[C@H](NC(=O)[C@@H](NC(=O)[C@H](Cc1ccc(O)cc1)NC(C)=O)C(C)C)C(=O)NCC(=O)N[C@@H](Cc1cnc[nH]1)C(=O)N[C@H](Cc1ccccc1)C(=O)N[C@@H](CCCNC(=N)N)C(=O)N[C@@H](Cc1c[nH]c2ccccc12)C(=O)N[C@@H](CC(=O)O)C(=O)N[C@@H](CCCNC(=N)N)C(=O)N[C@@H](Cc1ccccc1)C(=O)NCC(N)=O		100%			
CSCC[C@H](NC(=O)[C@H](CO)NC(=O)[C@H](Cc1ccc(O)cc1)NC(=O)[C@H](CO)NC(C)=O)C(=O)N[C@@H](CCC(=O)O)CN[C@@H](Cc1cnc[nH]1)C(=O)N[C@@H](Cc1ccccc1)C(=O)N[C@@H](CCCNC(=N)N)C(=O)N[C@@H](Cc1c[nH]c2ccccc12)C(=O)NCC(=O)N[C@@H](CCCCN)C(=O)N1CCC[C@H]1C(=O)N[C@H](C(N)=O)C(C)C			100%		%max [4]: 100%
CC(C)C[C@H](NC(=O)[C@H](Cc1ccccc1)NC(=O)[C@@H]1CCCN1C(=O)CNC(=O)[C@H](CC(C)C)NC(=O)[C@@H](NC(=O)[C@@H](N)Cc1ccc(O)cc1)C(C)C)C(=O)N[C@@H](Cc1ccccc1)C(=O)N[C@@H](CC(=O)O)C(=O)N[C@@H](CCCNC(=N)N)C(=O)N[C@@H](Cc1ccccc1)C(=O)NCC(N)=O (H-YVLGPFLFDRFG-NH2)	0%				
CC(C)C[C@H](NC(=O)[C@@H](NC(=O)[C@@H](N)Cc1ccc(O)cc1)C(C)C)C(=O)NCC(=O)N1CCC[C@H]1C(=O)N[C@@H](Cc1ccccc1)C(=O)N[C@@H](CCCNC(=N)N)C(=O)N[C@@H](Cc1ccccc1)C(=O)N[C@@H](CC(=O)O)C(=O)N[C@@H](CCCNC(=N)N)C(=O)N[C@@H](Cc1ccccc1)C(=O)NCC(N)=O (H-YVLGPFRFDRFG-NH2)	0%	0%			inhibition [10]: 0%; Emax at 10 µM (Melanocortin receptor 3 [9]): 0%
CC(C)C[C@H](NC(=O)[C@@H](NC(=O)[C@@H](N)Cc1ccc(O)cc1)C(C)C)C(=O)NCC(=O)N1CCC[C@H]1C(=O)N[C@@H](Cc1ccccc1)C(=O)N[C@@H](CCCNC(=N)N)C(=O)N[C@@H](Cc1c[nH]c2ccccc12)C(=O)N[C@@H](CC(=O)O)C(=O)N[C@@H](CCCNC(=N)N)C(=O)N[C@@H](Cc1ccccc1)C(=O)NCC(N)=O (H-YVLGPFRWDRFG-NH2)					inhibition at 10 µM (Melanocortin receptor 3 [11]): 100%
CCCC[C@H](NC(=O)[C@@H](NC(=O)[C@@H](N)Cc1ccc(O)cc1)C(C)C)C(=O)NCC(=O)N[C@@H](Cc1c[nH]cn1)C(=O)N[C@H](Cc1ccc2ccccc2c1)C(=O)N[C@@H](CCCN=C(N)N)C(=O)NC(Cc1c[nH]c2ccccc12)C(=O)N[C@@H](CC(=O)O)C(=O)N[C@@H](CCCN=C(N)N)C(=O)N[C@@H](Cc1ccccc1)C(=O)NCC(N)=O (stereo in doubt)	6%	100%	100%	100%	inhibition at 10 µM (Melanocortin receptor 3 [11]): 100%; Activity (Melanocortin receptor 5 [12]): 0%; %max [4]: 70%; Emax at 10 µM (Melanocortin receptor 3 [9]): 6%

Further lines, with some results ahead:

Emax at 10 µM (Melanocortin receptor 5 [1])	inhibition at 10 µM (Melanocortin receptor 4 [2])	inhibition [5]	inhibition at 10 µM (Melanocortin receptor 5 [7])	SMILES	other results
0%	100%			CC(C)C[C@H](NC(=O)[C@@H](NC(=O)[C@@H](N)Cc1ccc(O)cc1)C(C)C)C(=O)NCC(=O)N[C@@H](Cc1cnc[nH]1)C(=O)N[C@@H](Cc1ccccc1)C(=O)N[C@@H](CCCNC(=N)N)C(=O)N[C@@H](Cc1c[nH]c2ccccc12)C(=O)N[C@@H](CC(=O)O)C(=O)N[C@@H](CCCNC(=N)N)C(=O)N[C@@H](Cc1ccccc1)C(=O)NCC(N)=O	
	100%			CSCC[C@H](NC(=O)[C@@H](NC(=O)[C@@H](N)Cc1ccc(O)cc1)C(C)C)C(=O)NCC(=O)N[C@@H](Cc1cnc[nH]1)C(=O)N[C@@H](Cc1ccccc1)C(=O)N[C@@H](CCCNC(=N)N)C(=O)N[C@@H](Cc1c[nH]c2ccccc12)C(=O)N[C@@H](CC(=O)O)C(=O)N[C@@H](CCCNC(=N)N)C(=O)N[C@@H](Cc1ccccc1)C(=O)NCC(N)=O	Emax at 10 µM (Melanocortin receptor 4 [3]): 76%
		100%	0%	CC(C)C[C@H](NC(=O)[C@H](Cc1ccccc1)NC(=O)[C@H](Cc1cnc[nH]1)NC(=O)CNC(=O)[C@H](CC(C)C)NC(=O)[C@@H](NC(=O)[C@@H](N)Cc1ccc(O)cc1)C(C)C)C(=O)N[C@@H](Cc1ccccc1)C(=O)N[C@@H](CC(=O)O)C(=O)N[C@@H](CCCNC(=N)N)C(=O)N[C@@H](Cc1ccccc1)C(=O)NCC(N)=O (H-YVLGHFLFDRFG-NH2)	Activity (Anolis carolinensis [6]): Active; Activity (Anolis carolinensis [8]): inactive
		100%	0%	CC(C)C[C@H](NC(=O)[C@H](Cc1ccccc1)NC(=O)[C@H](Cc1cnc[nH]1)NC(=O)CNC(=O)[C@H](CC(C)C)NC(=O)[C@@H](NC(=O)[C@@H](N)Cc1ccc(O)cc1)C(C)C)C(=O)N[C@@H](Cc1c[nH]c2ccccc12)C(=O)N[C@@H](CC(=O)O)C(=O)N[C@@H](CCCNC(=N)N)C(=O)N[C@@H](Cc1ccccc1)C(=O)NCC(N)=O (H-YVLGHFLWDRFG-NH2)	Emax at 10 µM (Melanocortin receptor 3 [9]): 0%
0%			32%	CC(C)C[C@H](NC(=O)[C@H](Cc1ccccc1)NC(=O)[C@@H]1CCCN1C(=O)CNC(=O)[C@H](CC(C)C)NC(=O)[C@@H](NC(=O)[C@@H](N)Cc1ccc(O)cc1)C(C)C)C(=O)N[C@@H](Cc1c[nH]c2ccccc12)C(=O)N[C@@H](CC(=O)O)C(=O)N[C@@H](CCCNC(=N)N)C(=O)N[C@@H](Cc1ccccc1)C(=O)NCC(N)=O (H-YVLGPFLWDRFG-NH2)	Emax at 10 µM (Melanocortin receptor 4 [3]): 0%
